Measured values published in patent publication US20050209278A1, “Piperidinyl- and piperazinyl-sulfonylmethyl hydroxamic acids and their use as protease inhibitors” (priority 2002, published 2005).
Read-outs that look alike come from different tables or passages of the source.

Assays:
MMP-2 = biological target: T1, MMP-2 (Homo sapiens, UniProt P08253); assay: In vitro MMP inhibition, Ki determination (fluorogenic substrate II); type: biochemical; conditions: read-out: MMP-2 Ki
T1 construct: made in house; host or cells: MMP-2-transfected p2AHT2 cells
T1 sequence (P08253 110-660): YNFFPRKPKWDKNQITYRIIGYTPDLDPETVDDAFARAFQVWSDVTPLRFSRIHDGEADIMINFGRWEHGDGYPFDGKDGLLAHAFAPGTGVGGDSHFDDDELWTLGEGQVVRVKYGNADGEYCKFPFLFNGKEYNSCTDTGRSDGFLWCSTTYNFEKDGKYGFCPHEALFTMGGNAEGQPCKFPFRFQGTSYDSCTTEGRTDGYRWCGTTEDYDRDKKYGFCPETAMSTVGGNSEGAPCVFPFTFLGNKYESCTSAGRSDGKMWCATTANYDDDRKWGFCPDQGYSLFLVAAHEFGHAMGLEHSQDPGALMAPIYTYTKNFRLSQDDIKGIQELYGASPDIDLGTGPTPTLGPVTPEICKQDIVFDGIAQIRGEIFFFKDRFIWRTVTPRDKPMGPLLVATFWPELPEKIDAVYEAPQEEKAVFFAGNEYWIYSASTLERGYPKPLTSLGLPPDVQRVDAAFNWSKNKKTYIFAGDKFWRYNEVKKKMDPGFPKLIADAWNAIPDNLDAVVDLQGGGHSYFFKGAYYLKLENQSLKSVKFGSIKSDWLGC

MMP-14 = biological target: T2, MMP-14 (Homo sapiens, UniProt P50281); assay: as above; type: biochemical; conditions: read-out: MMP-14 Ki
T2 construct: The catalytic domain enzyme was expressed in E. coli inclusion bodies, solubilized in urea; made in house
Procedure, shortened: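 E. coli-expressed, refolded MMP-14 catalytic domain, activated with APMA or trypsin, in 100 mM Tris-HCl pH 7.5, 100 mM NaCl, 10 mM CaCl2, 0.05% Brij-type detergent. Apparent Ki by Morrison-equation regression of velocity vs inhibitor and enzyme concentration.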

| Ki (MMP-2; value outside parentheses) | Ki (MMP-14; value outside parentheses) | Ki (MMP-2; value not in parenthesis) | Ki (MMP-14; value not in parenthesis) | Compound |
| --- | --- | --- | --- | --- |
| 0.176 nM | 1110 nM |  |  | CCCCc1ccc(N2CCN(S(=O)(=O)C3(C(=O)NO)CCN(CCOC)CC3)CC2)nc1 [Example 270] |
| 0.826 nM | 3030 nM |  |  | CCCCOc1ccc(N2CCN(S(=O)(=O)C3(C(=O)NO)CCN(C(=O)CC)CC3)CC2)cc1 [Example 274] |
| 9.44 nM | 6940 nM |  |  | COCCN1CCC(C(=O)NO)(S(=O)(=O)N2CCN(c3ccc(Oc4ccccc4)cc3)CC2)CC1 [Example 287] |
|  |  | 8.74 nM | 1600 nM | O=C(NO)C1(S(=O)(=O)N2CCN(c3cccc(C(F)(F)F)c3)CC2)CCOCC1 [Example 82] |
|  |  | 2.2 nM | 2450 nM | CCCCc1ccc(C2CCN(S(=O)(=O)C3(C(=O)NO)CCN(CCOC)CC3)CC2)s1 [Example 55] |
| 1.68 nM | 5000 nM |  |  | C#CCN1CCC(C(=O)NO)(S(=O)(=O)N2CCN(c3ccc(OCCCC)cc3)CC2)CC1 [Example 303] |
| 0.505 nM | 1290 nM |  |  | CCCCc1ccc(C2CCN(S(=O)(=O)C3(C(=O)NO)CCOCC3)CC2)nc1 [Example 307] |
| 0.422 nM | 2390 nM |  |  | CCCCOc1ccc(N2CCN(S(=O)(=O)C3(C(=O)NO)CCN(C(=O)c4cccnc4)CC3)CC2)cc1 [Example 266] |
| 0.81 nM | 2770 nM |  |  | CCCCOc1ccc(N2CCN(S(=O)(=O)C3(C(=O)NO)CCN(CCOC)CC3)CC2)c(F)c1 [Example 284] |
| 5.17 nM | > 10000 nM |  |  | CCCCOc1ccc(N2CCN(S(=O)(=O)C3(C(=O)NO)CCNCC3)CC2)cc1F [Example 286] |
| 0.468 nM | 2650 nM |  |  | CCCCOc1ccc(N2CCN(S(=O)(=O)C3(C(=O)NO)CCN(C(=O)c4ccncc4)CC3)CC2)cc1 [Example 259] |
|  |  | 0.64 nM | 1510 nM | CCCCOc1ccc(N2CCN(S(=O)(=O)C3(C(=O)NO)Cc4ccccc4C3)CC2)nc1 [Example 85] |
| 0.662 nM | 4350 nM |  |  | CCCCCc1ccc(N2CCN(S(=O)(=O)C3(C(=O)NO)CCN(C4CC4)CC3)CC2)cc1 [Example 272] |
|  |  | 1.68 nM | 4550 nM | CCCCOc1ccc(N2CCN(S(=O)(=O)C3(C(=O)NO)CCOCC3)CC2)c(F)c1 [Example 90] |
|  |  | 7.53 nM | > 10000 nM | CCCCOc1ccc(N2CCN(S(=O)(=O)C3(C(=O)NO)CCN(C(C)(C)C)CC3)CC2)c(F)c1 [Example 84] |
| 8.23 nM | > 10000 nM |  |  | CCCCOc1ccc(N2CCN(S(=O)(=O)C3(C(=O)NO)CCN(c4ccccc4)CC3)CC2)cc1 [Example 264] |
| 0.276 nM | 48.1 nM |  |  | CCc1ccc(N2CCN(S(=O)(=O)C3(C(=O)NO)CCCC3)CC2)nc1 [Example 261] |

| Ki (MMP-2; value outside parentheses) | Ki (MMP-14; value outside parentheses) | Ki (MMP-2; value not in parenthesis) | Ki (MMP-14; value not in parenthesis) | Compound |
| --- | --- | --- | --- | --- |
| 0.486 nM | 5440 nM |  |  | CCCCOc1ccc(N2CCN(S(=O)(=O)C3(C(=O)NO)CCN(Cc4cccnc4)CC3)CC2)cc1F [Example 293] |
|  |  | 0.49 nM | 2800 nM | O=C(NO)C1(S(=O)(=O)N2CCN(c3ccc(OCCCCF)cc3)CC2)CCOCC1 [Example 89] |
|  |  | 0.54 nM | 2760 nM | COCCN1CCC(C(=O)NO)(S(=O)(=O)N2CCN(c3ccc(OCCCCF)cc3)CC2)CC1 [Example 88] |
|  |  | 0.5 nM | 454 nM | O=C(NO)C1(S(=O)(=O)N2CCN(c3ccc(OCc4ccccc4)cn3)CC2)CCOCC1 [Example 74] |
| 67.1 nM | > 10000 nM |  |  | CS(=O)(=O)c1ccc(N2CCN(S(=O)(=O)C3(C(=O)NO)CCOCC3)CC2)cc1 [Example 300] |
| 6.36 nM | 1040 nM |  |  | O=C(NO)C1(S(=O)(=O)N2CCC(c3ccc(-c4ccc(F)cc4F)cn3)CC2)CCOCC1 [Example 308] |
|  |  | 0.5 nM | 1620 nM | C#CCOC(=O)N1CCC(C(=O)NO)(S(=O)(=O)N2CCN(c3ccc(OCCCC)cc3)CC2)CC1 [Example 98] |
| 0.919 nM | 4820 nM |  |  | COCCN1CCC(C(=O)NO)(S(=O)(=O)N2CCC(c3ccc(CCCC(F)(F)F)cc3)CC2)CC1 [Example 310] |
| 0.622 nM | 5090 nM |  |  | CCCCOc1ccc(N2CCN(S(=O)(=O)C3(C(=O)NO)CCN(C(=O)C(C)C)CC3)CC2)cc1 [Example 273] |
| 103 nM | > 10000 nM |  |  | COCCN1CCC(C(=O)NO)(S(=O)(=O)N2CCC(c3ncc(CC(C)C)s3)CC2)CC1 [Example 311] |
| 0.328 nM | 1440 nM |  |  | COCCN1CCC(C(=O)NO)(S(=O)(=O)N2CCC(c3ccc(CCC(F)(F)F)cc3)CC2)CC1 [Example 309] |
|  |  | 0.38 nM | 1180 nM | O=C(NO)C1(S(=O)(=O)N2CCN(c3ccc(CCC(F)(F)F)cc3)CC2)CCOCC1 [Example 77] |
| 1.11 nM | 4270 nM |  |  | CC(C)CCOc1ccc(N2CCN(S(=O)(=O)C3(C(=O)NO)CCOCC3)CC2)cc1 [Example 279] |
| 0.564 nM | 1390 nM |  |  | CCCCOc1ccc(N2CCN(S(=O)(=O)C3(C(=O)NO)CCN(C(=O)COC)CC3)CC2)cc1 [Example 268] |
| 0.37 nM | 549 nM |  |  | CCCCOc1ccc(N2CCN(S(=O)(=O)C3(C(=O)NO)CCN(c4ccc(O)nn4)CC3)CC2)cc1 [Example 283] |
| 9.64 nM | > 10000 nM |  |  | CCCCOc1ccc(N2CCN(S(=O)(=O)C3(C(=O)NO)CCN(c4ccc(C(F)(F)F)cn4)CC3)CC2)cc1 [Example 257] |
